Test [1] is described as follows: Oral bilirubin supplementation, blood chemistry. The test is classed as in vivo. How it is done:
2-6 bilirubin pills (10 mg/capsule)were ingested daily as a dietary supplement over time period from 3-12 months. Blood samples were taken by medical professionals and blood chemistry, including serum bilirubin level, total cholesterol, triglyceride, LDL-cholesterol, and HDL cholesterol were analyzed by independent medical testing laboratories.

The subject of test [2] is liver cholesterol esterase. Put plainly: Cholesterol esterification by liver cholesterol esterase. The test is classed as biochemical.
Test [3] has as its system malate dehydrogenase (MDH). The test can be described thus: Malate dehydrogenase inhibition. The test is classed as biochemical. Conditions: concentration equivalent to the moderate level of serum bilirubin (FIG. 7).
Test [4] relates to Human carcinoma cells. Put plainly: Cancer cell growth by cell counting. The test is classed as cell-based. Particulars: concentrations above 10 mg/L (FIG. 10). How it is done:
Cell growth. Human carcinoma cells were cultured continuously in a medium containing ferrous sulfate, kept in a humidified incubator at 37° C. Cancer cells were seeded in triplicate at a density of 10,000 cells/3.5-cm culture dish overnight before being subjected to treatments. Growth was estimated by counting cells in a hemocytometer after staining cells with trypan blue. Cell yields from cultures maintained in seeding medium served as growth controls for computing the relative cell growth.

In test [5] the target is T1, cholesterol esterase (CHE) (Homo sapiens, UniProt P19835).
T1 sequence (P19835 21-753): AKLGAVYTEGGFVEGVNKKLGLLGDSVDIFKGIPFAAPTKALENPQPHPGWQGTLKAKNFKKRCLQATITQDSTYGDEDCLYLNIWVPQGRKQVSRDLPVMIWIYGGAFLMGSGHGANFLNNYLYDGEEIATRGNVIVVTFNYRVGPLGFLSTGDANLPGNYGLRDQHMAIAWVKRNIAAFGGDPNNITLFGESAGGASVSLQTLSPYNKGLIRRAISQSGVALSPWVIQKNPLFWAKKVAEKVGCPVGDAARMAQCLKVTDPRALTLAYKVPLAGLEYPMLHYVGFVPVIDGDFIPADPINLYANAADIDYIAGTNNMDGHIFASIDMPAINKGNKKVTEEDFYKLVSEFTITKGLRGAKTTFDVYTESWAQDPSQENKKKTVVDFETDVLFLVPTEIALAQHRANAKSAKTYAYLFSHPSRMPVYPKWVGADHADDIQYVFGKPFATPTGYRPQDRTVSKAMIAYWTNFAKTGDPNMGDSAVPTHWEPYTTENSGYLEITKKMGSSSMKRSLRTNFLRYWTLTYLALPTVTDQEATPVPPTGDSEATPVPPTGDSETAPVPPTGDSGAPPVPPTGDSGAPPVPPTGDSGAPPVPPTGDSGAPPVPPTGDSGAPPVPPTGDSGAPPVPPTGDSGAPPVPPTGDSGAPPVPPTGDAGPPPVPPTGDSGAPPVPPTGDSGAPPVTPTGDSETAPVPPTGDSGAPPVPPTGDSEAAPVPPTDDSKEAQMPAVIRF
Put plainly: Cholesterol esterase inhibition. Particulars: bilirubin concentration of about 10 mg/L; pH=7.2 (FIG. 1). The test is classed as biochemical.

Test [6] relates to Pancreas phospholipase A2 (PLA2). Put plainly: Phospholipase A2 FlashPlate inhibition assay. The test is classed as biochemical. Particulars: bilirubin concentration of about 10 mg/L; pH=7.2 (FIG. 1). As to the method: Pancreas phospholipase A2 (PLA2) (SigmaAldrich Cat.# P223), acetylcholinesterase (SigmaAldrich cat.# C0663), acetyleholine chloride (Cat.# A6625), and bilirubin (SigmaAldrich #B4126) were purchased from SigmaAldrich. Bilirubin solution was prepared freshly by dissolving it in dimethyl sulfoxide (DMSO) and further dilutions were made in Tris-HCl buffer (pH 7.4). The sPLA2 activity was determined by the FlashPlate assay procedure described by Do and Kasila (American Biotechnology Laboratory, June 2001, P 51-52). Briefly, phospholipid flash plates (PerkinElmer Life Sciences, cat. #SMP108) were coated with 0.2 mL/well of the substrate of 1-steroyl 2-arachidonyl phosphatidylcholine (PerkinElmer Life Sciences, cat. #NE872). The plate was covered and incubated overnight at room temperature. After the incubation, the wells were aspirated prior to use in the PLA2 assay. The substrate assay buffer contained 50 mM tris-HCl (pH=7.3), 0.2 M NaCl, 0.1 mM CaCl2, 0.1 mM EDTA, 0.02% deoxycholate, 10-50 units/mL PLA2, and final volume 200 μL/well. The bound radioactivity was determined by counting the FlashPlate.

Test [7] has as its system histone deacetylase (HDAC), HeLa cell lysate. The test can be described thus: Histone deacetylase (HDAC) assay. The test is classed as biochemical. How it is done: Assay of histone decaetylase (HDAC). The activity of HDAC was measured according to the procedure provided by SigmaAldrich (Histone Deacetylase Assay Kit, Cat.# CS1010). HeLa cel lysate provided by the assay kit was used as a source for HDAC activity in the inhibition testing.

For test [8], the target named is T2, acetylcholinesterase (Homo sapiens, UniProt P22303).
T2 construct: purchased SigmaAldrich C0663
The test can be described thus: Acetylcholinesterase activity by choline release. The test is classed as biochemical. Conditions: at high bilirubin concentrations (FIG. 2). How it is done:
Since bilirubin itself gives an absorption peak at 460 nm, which interferes with the cholinesterase assay procedures in many standard assay kits, a modified method was developed. The acetylcholinesterase activity was determined by measuring the quantity of choline release from acetylcholine:
Briefly, after 30 minutes reaction in the above acetylcholine-enzyme solution at pH=7.8, in the absence or presence of bilirubin, the reaction was stopped by heating to about 100° C. in boiling water. The solution was then cooled down to 37° C. Residual bilirubin was neutralized by titrating with H2O2. The amount of choline was then determined by the following choline oxidase assay method provided by SigmaAldrich (Cat.# C5896): […]

Setting [9] is: 2-6 pills (10 mg/capsule) daily, 3-12 months.
The mark [10] stands for this setting: at higher serum bilirubin level (FIG. 12).

What is called inhibition is the percentage by which the read-out fell short of the control.

T2 sequence (P22303 32-617 isoform P22303-2 limits assumed): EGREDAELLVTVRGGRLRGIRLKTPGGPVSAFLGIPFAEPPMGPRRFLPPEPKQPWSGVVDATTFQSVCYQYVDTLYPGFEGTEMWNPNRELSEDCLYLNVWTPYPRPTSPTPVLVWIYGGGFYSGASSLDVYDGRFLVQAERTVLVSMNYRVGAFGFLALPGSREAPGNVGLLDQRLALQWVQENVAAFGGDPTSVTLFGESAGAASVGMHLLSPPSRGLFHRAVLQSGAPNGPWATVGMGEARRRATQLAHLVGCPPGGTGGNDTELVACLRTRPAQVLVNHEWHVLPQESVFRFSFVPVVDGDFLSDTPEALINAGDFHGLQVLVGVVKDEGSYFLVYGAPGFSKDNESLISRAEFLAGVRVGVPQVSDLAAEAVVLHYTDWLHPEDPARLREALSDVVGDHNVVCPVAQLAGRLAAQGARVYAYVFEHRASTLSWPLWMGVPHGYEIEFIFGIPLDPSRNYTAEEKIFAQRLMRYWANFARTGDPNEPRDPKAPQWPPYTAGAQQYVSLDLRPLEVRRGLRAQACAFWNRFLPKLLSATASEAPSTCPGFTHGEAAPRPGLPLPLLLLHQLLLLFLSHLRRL

For the compound `C=CC1=C(C)C(=Cc2[nH]c(Cc3[nH]c(C=C4NC(=O)C(C)=C4C=C)c(C)c3CCC(=O)O)c(CCC(=O)O)c2C)NC1=O` [bilirubin, 2,7,13,17-tetramethyl-1,19-dioxo-3,18-divinyl-1,10,19,22,23,24-hexahydro-21H-biline-8,12-dipropanoic acid], in test [1] (setting [9]), the total cholesterol concentration entry is recorded as “varied inversely” and the “total serum bilirubin level” value is “effectively increased”. In test [1] (setting [10]), the LDL-cholesterol level result is reported as “lower” and the triglycerol level result is reported as “lower”. The fecal fat content entry in test [1] (bilirubin treatment) is “substantially increased”. For the same compound, the “inhibition of cholesterol esterification by liver cholesterol esterase” value in test [2] is “inhibits”. In addition, the “inhibition of malate dehydrogenase” value in test [3] is given as “strongly suppressed”. Also, in test [4], the relative cell growth entry is listed as “largely suppressed”. Besides, the inhibition at 10 µg/mL in test [5] was ~50%. For the same compound, the “inhibition of the PLA2 activity” value in test [6] was “about 80%”. Besides, the “50% inhibition concentration (IC50)” value in test [7] (substrate concentration 5 μM) stood at 16.5 µg/mL. Also, the “50% inhibition concentration (IC50)” value in test [7] (substrate concentration 50 μM) stood at 40 µg/mL. For the same compound, the acetylcholinesterase activity entry in test [8] is given as “completely eliminated”.
